Assay results from patent US8809350B2, “Purine and pyrimidine CDK inhibitors and their use for the treatment of autoimmune diseases” (priority 2004, dated 2014).
Like-named read-outs stand apart in the source and are kept apart here.

What was measured:
tumour cell panels = assay: In-house 72 hour cytotoxicity assays on tumour cell panels; assay type: cell-based
AurA = target: T1, AurA (Homo sapiens, UniProt O14965); assay: In-house kinase assay (32P incorporation); assay type: biochemical; conditions: in-house kinase assays
T1 sequence (O14965 1-403): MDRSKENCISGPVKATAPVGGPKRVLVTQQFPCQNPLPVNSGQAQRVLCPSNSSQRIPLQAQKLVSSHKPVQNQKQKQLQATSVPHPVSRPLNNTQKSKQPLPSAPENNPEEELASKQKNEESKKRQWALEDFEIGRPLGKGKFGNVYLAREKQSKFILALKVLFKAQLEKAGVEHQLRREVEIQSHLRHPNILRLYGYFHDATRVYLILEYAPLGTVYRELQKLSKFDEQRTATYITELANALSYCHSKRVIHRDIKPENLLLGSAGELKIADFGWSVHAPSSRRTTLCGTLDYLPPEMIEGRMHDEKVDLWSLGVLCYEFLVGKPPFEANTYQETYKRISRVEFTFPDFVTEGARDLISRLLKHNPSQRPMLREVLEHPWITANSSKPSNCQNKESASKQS
Description: (§1) Kinase activity was investigated by measuring the incorporation of radioactive phosphate from ATP into appropriate polypeptide substrates. Recombinant protein kinases and kinase complexes were produced or obtained commercially. Assays were performed using 96-well plates and appropriate assay buffers (typically 25 mM β-glycerophosphate, 20 mM MOPS, 5 mM EGTA, 1 mM DTT, 1 mM […], pH 7.4), into which were added 2-4 μg of active enzyme with appropriate substrates. The reactions were initiated by addition of Mg/ATP mix (15 mM MgCl2+100 μM ATP with 30-50 kBq per well of [γ-^32P]-ATP) and mixtures incubated as required at 30° C. Reactions were stopped on ice, followed by filtration through p81 filterplates or GF/C filterplates (Whatman Polyfiltronics, Kent, UK). After washing 3 times with 75 mM aq orthophosphoric acid, plates were dried, scintillant added and incorporated radioactivity measured in a scintillation counter (TopCount, Packard Instruments, Pangbourne, Berks, UK). Compounds for kinase assay were made up as 10 mM stocks in DMSO and diluted into 10% DMSO in assay buffer.

AurB = AurB (Homo sapiens, UniProt Q96GD4); assay: In-house kinase assay (32P incorporation); assay type: biochemical; conditions: in-house kinase assays
Sequence of AurB (Q96GD4 whole entry): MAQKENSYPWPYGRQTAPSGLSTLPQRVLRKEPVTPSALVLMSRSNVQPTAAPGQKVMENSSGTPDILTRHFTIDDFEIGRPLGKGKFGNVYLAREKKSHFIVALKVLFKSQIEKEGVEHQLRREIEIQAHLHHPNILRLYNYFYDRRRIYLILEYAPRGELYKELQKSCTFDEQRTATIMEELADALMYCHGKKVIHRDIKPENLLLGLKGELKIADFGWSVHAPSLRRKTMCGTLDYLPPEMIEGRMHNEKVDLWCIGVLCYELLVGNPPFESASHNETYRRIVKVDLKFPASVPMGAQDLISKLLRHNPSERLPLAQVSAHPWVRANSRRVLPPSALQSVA
Description: as §1

CDK1B = CDK1B (Homo sapiens, UniProt P06493); assay: In-house kinase assay (32P incorporation); assay type: biochemical; conditions: in-house kinase assays
Sequence of CDK1B (P06493 whole entry): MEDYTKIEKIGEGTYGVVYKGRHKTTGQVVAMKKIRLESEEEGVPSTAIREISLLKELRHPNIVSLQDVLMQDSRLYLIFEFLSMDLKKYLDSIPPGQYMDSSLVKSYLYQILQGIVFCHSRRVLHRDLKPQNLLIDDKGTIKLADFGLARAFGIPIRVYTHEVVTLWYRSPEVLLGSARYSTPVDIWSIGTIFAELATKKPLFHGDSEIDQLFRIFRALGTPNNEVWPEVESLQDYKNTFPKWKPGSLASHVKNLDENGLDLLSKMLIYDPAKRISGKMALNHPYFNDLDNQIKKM
Sequence of CDK1B (P14635 whole entry partner): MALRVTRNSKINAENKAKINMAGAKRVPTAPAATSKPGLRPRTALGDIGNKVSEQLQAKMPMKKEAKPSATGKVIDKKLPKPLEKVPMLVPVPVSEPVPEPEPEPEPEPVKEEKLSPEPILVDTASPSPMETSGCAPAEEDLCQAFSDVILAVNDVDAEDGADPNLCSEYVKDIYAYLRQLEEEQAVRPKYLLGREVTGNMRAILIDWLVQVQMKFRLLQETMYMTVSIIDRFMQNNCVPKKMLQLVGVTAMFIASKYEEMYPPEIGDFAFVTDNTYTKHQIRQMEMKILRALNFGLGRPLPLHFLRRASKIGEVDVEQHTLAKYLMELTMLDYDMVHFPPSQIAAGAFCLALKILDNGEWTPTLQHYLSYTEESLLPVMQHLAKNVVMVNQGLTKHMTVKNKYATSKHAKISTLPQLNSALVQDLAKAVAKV
Description: as §1

CDK6D3 = CDK6D3 (Homo sapiens, UniProt Q00534); assay: In-house kinase assay (32P incorporation); assay type: biochemical; conditions: in-house kinase assays
Sequence of CDK6D3 (Q00534 whole entry): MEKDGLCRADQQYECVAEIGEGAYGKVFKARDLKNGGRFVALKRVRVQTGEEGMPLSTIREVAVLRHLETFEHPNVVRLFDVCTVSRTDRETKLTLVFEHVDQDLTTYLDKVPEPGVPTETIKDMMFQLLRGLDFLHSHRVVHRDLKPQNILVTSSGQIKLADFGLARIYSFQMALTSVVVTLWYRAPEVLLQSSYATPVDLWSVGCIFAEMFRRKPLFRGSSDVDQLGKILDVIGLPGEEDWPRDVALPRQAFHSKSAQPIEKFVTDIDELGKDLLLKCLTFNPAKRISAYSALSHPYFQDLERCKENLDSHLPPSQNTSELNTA
Sequence of CDK6D3 (P30281 whole entry partner): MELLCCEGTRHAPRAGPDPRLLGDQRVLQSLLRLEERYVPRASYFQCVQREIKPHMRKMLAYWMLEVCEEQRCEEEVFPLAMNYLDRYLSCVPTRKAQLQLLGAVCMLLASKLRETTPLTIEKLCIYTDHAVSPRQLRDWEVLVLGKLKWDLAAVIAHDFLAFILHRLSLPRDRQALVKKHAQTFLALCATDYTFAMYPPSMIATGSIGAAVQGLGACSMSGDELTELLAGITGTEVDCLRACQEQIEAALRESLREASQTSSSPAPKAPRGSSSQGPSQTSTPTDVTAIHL
Description: as §1

CDK7/cyclin H = CDK7/cyclin H (Homo sapiens, UniProt P50613); assay: CDK 7 and 9 assay (CTD peptide substrate); assay type: biochemical; conditions: in-house kinase assays; read-out: Average IC50 CDK7H
Sequence of CDK7/cyclin H (P50613 whole entry): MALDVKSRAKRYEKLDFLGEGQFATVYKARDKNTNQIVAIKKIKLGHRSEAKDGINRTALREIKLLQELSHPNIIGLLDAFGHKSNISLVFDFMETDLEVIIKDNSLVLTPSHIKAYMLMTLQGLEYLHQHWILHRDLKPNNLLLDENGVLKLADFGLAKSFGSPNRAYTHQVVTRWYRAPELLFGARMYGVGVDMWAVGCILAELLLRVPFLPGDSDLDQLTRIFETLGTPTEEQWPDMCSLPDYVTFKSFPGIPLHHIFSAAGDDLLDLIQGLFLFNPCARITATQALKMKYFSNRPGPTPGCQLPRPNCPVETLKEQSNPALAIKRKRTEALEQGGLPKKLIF
Sequence of CDK7/cyclin H (P51946 whole entry partner): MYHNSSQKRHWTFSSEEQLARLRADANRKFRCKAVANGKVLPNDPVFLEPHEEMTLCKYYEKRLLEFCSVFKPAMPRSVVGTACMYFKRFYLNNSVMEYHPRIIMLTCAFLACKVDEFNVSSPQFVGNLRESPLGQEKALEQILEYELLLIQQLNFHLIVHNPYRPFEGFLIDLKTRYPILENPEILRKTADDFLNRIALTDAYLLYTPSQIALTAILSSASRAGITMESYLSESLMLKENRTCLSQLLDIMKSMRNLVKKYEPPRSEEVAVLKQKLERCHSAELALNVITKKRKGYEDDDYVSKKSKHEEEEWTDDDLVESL
Description: as §1
The reaction was stopped by placing the plate on ice for 2 min. Avidin (50 μg) was added to each well, and the plate was incubated at room temp for 30 min. The samples were transferred to a 96-well P81 filter plate, and washed (4×200 μL per well) with 75 mM phosphoric acid. Microscint 40 scintillation liquid (50 μL) was added to each well, and the amount of ^32P incorporation for each sample was measured using a Packard Topcount microplate scintillation counter.

CDK4D1 = CDK4D1 (Homo sapiens, UniProt P11802); assay: In-house kinase assay (32P incorporation); assay type: biochemical; conditions: in-house kinase assays
Sequence of CDK4D1 (P11802 whole entry): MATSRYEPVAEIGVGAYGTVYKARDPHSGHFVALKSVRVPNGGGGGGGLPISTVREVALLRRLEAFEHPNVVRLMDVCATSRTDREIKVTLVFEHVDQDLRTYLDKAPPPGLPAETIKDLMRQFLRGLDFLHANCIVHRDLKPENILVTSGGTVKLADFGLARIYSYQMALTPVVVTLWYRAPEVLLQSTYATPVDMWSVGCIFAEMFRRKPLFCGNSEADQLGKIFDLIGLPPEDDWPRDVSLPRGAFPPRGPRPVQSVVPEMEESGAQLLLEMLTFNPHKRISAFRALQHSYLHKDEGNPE
Sequence of CDK4D1 (P24385 whole entry partner): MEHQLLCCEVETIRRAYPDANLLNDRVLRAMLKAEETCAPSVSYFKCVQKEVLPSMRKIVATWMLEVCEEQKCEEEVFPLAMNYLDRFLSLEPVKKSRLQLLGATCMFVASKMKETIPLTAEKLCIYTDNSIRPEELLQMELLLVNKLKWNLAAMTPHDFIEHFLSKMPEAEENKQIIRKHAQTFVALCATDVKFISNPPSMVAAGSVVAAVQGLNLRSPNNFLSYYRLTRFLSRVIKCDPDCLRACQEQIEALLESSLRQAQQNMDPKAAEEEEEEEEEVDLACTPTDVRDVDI
Description: as §1

[1] = rounded IC50 value used for ease of calculation in PBMC assays, read-out: IC50 Used

IC50 (AurA) | IC50 (AurB) | IC50 (CDK1B) | IC50 (CDK6D3) | IC50 (CDK7/cyclin H) | IC50 (CDK4D1) | Structure (SMILES) | IC50 (tumour cell panels; 72 h, read-out: IC50 Average) | IC50 (tumour cell panels; [1])
652 nM | 399 nM | 1990 nM | 168 nM | – | – | CC[C@H](Nc1nc(NCc2cccnc2)c2ncn(C(C)C)c2n1)[C@@H](C)O [Compound 8] | 876 nM | 1000 nM
– | – | – | – | 266 nM | – | Cc1nc(N)sc1-c1ccnc(Nc2ccc(N3CCOCC3)cc2)n1 [Compound 11] | 291 nM | 500 nM
– | – | 1030 nM | – | – | 1020 nM | CNc1nc(C)c(-c2ccnc(Nc3ccc(N4CCNCC4)cc3)n2)s1 [Compound 12] | 353 nM | 500 nM
